Ends that are not written are not given here.
Columns and labels:
arteriosclerotic plaque = assay: Detection of arteriosclerotic plaque (Oil Red O staining); type: in vivo, ApoE/Gpnmb-DTR mice; settings: HFD from 4 to 16 weeks of age, s.c. vaccination at 8 weeks of age; vs control vaccine; FIGS. 2J, 2K
Description: Arteriosclerotic plaques were detected by Oil Red O staining. Briefly, autopsy removed adventitial fat to open the entire aorta and fixed the aorta flat in 4 v/v % paraformaldehyde at room temperature for 12 hours. Subsequently, the fixed aorta was washed by immersing in 60 v/v % isopropyl alcohol for 1 minute. Subsequently, the aorta was incubated at 37° C. for 15 minutes in 0.5% of Oil Red O (Sigma-Aldrich) solution (diluted with 60 v/v % isopropyl alcohol). After staining, the sample was briefly immersed in a 60 v/v % isopropyl alcohol solution and then washed with double distilled water. Atherosclerotic lesions were stained red with Oil Red O (refer to FIG. 1G). For the Oil Red O stained region, the plaque region was quantified by Image-J software (refer to FIG. 1H). […]
Detection of arteriosclerotic plaque and analysis of Gpnmb-dependent luciferase activity were performed using the same method as in “6.” and “2.” of Reference Example 1, except that ApoE/Gpnmb-DTR mice (16 weeks of age) bred while feeding HFD for 12 weeks from 4 to 16 weeks of age and administered with peptide vaccine 1 or a control vaccine by subcutaneous injection at a time point of 8 weeks of age were used (refer to FIG. 2J). The Oil Red O stained region was quantified by Image-J software (refer to FIG. 2K). […]

[1] = tested on: replicative aging adipose precursor cells derived from C57BL/6 mice; assay: ADCC (Antibody-Dependent-Cellular-Cytotoxicity) activity analysis; type: cell-based; settings: purified IgG from mice administered with the vaccine; NK effector cells/target cells 1/1; LDH release, 4 hours; FIG. 2E
Description: ADCC (Antibody-Dependent-Cellular-Cytotoxicity) was evaluated using a CytoTox 96 non-radioactive cytotoxicity assay kit (Promega). Specifically, natural killer (NK) cells were isolated from C57BL/6 mice as effector cells using Ficoll-Paque Plus (GE Healthcare) and EasySep mouse NK cell isolation kit (STEMCELL). Subsequently, as target cells, replicative aging adipose precursor cells derived from C57BL/6 mice were seeded on a 96-well plate so as to have 10^4 cells per well. Subsequently, purified IgG antibody obtained from C57BL/6 mice bred by feeding HFD from 4 weeks of age and administered with peptide vaccine 1 or a control vaccine by subcutaneous injection at a time point of 8 weeks of age was added to each well, and incubated at 37° C. for 30 minutes. After incubation, NK cells were seeded in each well so that a ratio of the cell number of effector cells to the target cells (effector cells/target cells) was 1/1. Subsequently, the plates were incubated at 37° C. for an additional 4 hours. Subsequently, lactate dehydrogenase released in a supernatant was detected using a microtiter plate reader (iMark microplate reader, Bio-Rad). To evaluate cell death, a ratio of lysed cells to the total number of cultured cells was calculated. In FIG. 2E, “Cont vac” is a C57BL/6 mouse administered with the control vaccine, and “Gpnmb vac” is a C57BL/6 mouse administered with peptide vaccine 1.

**Q.** Which results are given for “RRGDGRWKD (also: KLH conjugate; listed as Mus musculus) [peptide vaccine 1, peptide of positions 63 to 71 of mouse GPNMB protein]”?
**A.** development of atheroma (arteriosclerotic plaque, Oil Red O stained region) (arteriosclerotic plaque): significantly decreased; antibody-dependent cellular cytotoxicity (ADCC activity) [1]: exhibits antibody-dependent cellular cytotoxicity (ADCC activity)
